Consider seven compounds from publication PMC6199744, “Development of Chemical Proteomics for the Folateome and Analysis of the Kinetoplastid Folateome” (ACS Infectious Diseases, 2018).

Format in all cases: binding
Test [1] concerns the target T1, HeLa cell extract proteins (Homo sapiens, UniProt Q6JQN1).
T1 construct: endogenous in cells; host or cells: HeLa cell extract
T1 sequence (Q6JQN1 1-1059): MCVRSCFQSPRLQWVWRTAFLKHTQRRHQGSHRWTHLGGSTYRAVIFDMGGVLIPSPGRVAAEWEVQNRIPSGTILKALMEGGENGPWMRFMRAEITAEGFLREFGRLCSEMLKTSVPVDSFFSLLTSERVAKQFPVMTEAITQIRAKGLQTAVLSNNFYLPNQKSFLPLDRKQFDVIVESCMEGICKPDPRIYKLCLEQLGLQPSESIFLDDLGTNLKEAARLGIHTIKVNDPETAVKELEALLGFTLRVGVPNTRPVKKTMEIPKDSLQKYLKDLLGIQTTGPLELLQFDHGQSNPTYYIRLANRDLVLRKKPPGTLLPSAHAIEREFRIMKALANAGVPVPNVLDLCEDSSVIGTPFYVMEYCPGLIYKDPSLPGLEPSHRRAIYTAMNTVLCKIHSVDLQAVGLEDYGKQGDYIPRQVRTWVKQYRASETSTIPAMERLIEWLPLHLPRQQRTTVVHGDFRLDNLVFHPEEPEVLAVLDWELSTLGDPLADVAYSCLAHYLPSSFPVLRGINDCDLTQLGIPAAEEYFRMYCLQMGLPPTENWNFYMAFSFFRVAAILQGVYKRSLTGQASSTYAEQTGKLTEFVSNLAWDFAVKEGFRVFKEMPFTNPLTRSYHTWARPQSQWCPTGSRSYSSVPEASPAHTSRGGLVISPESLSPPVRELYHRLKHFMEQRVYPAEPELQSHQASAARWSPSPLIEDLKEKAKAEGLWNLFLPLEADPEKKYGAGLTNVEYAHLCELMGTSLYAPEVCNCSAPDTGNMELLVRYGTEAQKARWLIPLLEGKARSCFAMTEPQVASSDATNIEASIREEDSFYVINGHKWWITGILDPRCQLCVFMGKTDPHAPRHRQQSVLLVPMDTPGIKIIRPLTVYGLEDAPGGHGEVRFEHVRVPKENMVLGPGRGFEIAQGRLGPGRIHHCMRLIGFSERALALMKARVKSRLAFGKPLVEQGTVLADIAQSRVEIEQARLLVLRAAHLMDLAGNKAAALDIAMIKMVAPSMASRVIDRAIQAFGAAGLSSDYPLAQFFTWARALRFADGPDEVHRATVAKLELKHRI

The target of test [2] is T2, HeLa cell extract proteins (Homo sapiens, UniProt Q15645).
T2 construct: endogenous in cells; host or cells: HeLa cell extract
T2 sequence (Q15645 1-432): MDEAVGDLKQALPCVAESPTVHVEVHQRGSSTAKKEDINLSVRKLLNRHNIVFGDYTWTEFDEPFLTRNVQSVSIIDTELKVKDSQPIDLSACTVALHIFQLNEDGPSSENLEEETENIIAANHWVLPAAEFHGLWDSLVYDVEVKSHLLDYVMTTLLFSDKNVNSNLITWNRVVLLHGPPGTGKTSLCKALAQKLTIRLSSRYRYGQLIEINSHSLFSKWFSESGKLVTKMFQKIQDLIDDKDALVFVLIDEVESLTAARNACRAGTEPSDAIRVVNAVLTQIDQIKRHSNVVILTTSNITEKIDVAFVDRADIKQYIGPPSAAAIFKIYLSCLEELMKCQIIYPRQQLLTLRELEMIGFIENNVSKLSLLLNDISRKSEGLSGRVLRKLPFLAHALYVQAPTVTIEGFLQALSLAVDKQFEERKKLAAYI

Test [3] has as its target T3, HeLa cell extract proteins (Homo sapiens, UniProt Q9GZT8).
T3 construct: endogenous in cells; host or cells: HeLa cell extract
T3 sequence (Q9GZT8 1-377): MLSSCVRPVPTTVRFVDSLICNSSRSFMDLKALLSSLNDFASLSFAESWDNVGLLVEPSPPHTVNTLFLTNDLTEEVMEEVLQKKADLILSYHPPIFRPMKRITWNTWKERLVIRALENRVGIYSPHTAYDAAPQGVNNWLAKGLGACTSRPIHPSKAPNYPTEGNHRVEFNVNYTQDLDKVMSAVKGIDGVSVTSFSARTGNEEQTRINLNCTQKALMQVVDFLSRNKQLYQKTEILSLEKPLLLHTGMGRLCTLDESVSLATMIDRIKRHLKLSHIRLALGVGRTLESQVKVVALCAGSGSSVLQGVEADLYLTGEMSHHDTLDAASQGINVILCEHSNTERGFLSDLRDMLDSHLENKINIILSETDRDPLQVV

Test [4] deals with T4, HeLa cell extract proteins (Homo sapiens, UniProt P42345).
T4 construct: endogenous in cells; host or cells: HeLa cell extract

For test [5], the target named is T5, HeLa cell extract proteins (Homo sapiens, UniProt P31949).
T5 construct: endogenous in cells; host or cells: HeLa cell extract
T5 sequence (P31949 1-105): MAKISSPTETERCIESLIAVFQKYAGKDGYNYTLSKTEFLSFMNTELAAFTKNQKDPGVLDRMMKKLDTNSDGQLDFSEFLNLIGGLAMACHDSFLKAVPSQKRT

Test [6] addresses T6, HeLa cell extract proteins (Homo sapiens, UniProt P13639).
T6 construct: endogenous in cells; host or cells: HeLa cell extract

Test [7] addresses T7, HeLa cell extract proteins (Homo sapiens, UniProt Q16576).
T7 construct: endogenous in cells; host or cells: HeLa cell extract

Test [8] addresses T8, HeLa cell extract proteins (Homo sapiens, UniProt P10809).
T8 construct: endogenous in cells; host or cells: HeLa cell extract

Test [9] has as its target T9, HeLa cell extract proteins (Homo sapiens, UniProt Q8NFH4).
T9 construct: endogenous in cells; host or cells: HeLa cell extract
T9 sequence (Q8NFH4 1-326): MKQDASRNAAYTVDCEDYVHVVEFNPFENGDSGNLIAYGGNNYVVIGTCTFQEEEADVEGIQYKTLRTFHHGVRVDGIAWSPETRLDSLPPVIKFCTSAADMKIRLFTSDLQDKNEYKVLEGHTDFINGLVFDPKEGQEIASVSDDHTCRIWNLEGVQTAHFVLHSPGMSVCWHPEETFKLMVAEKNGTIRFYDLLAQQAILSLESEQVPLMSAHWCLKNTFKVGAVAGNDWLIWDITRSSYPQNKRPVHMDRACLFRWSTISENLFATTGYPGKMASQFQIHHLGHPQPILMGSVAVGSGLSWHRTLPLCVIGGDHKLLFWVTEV

The target in test [10] is T10, HeLa cell extract proteins (Homo sapiens, UniProt Q9UJX4).
T10 construct: endogenous in cells; host or cells: HeLa cell extract
T10 sequence (Q9UJX4 whole entry): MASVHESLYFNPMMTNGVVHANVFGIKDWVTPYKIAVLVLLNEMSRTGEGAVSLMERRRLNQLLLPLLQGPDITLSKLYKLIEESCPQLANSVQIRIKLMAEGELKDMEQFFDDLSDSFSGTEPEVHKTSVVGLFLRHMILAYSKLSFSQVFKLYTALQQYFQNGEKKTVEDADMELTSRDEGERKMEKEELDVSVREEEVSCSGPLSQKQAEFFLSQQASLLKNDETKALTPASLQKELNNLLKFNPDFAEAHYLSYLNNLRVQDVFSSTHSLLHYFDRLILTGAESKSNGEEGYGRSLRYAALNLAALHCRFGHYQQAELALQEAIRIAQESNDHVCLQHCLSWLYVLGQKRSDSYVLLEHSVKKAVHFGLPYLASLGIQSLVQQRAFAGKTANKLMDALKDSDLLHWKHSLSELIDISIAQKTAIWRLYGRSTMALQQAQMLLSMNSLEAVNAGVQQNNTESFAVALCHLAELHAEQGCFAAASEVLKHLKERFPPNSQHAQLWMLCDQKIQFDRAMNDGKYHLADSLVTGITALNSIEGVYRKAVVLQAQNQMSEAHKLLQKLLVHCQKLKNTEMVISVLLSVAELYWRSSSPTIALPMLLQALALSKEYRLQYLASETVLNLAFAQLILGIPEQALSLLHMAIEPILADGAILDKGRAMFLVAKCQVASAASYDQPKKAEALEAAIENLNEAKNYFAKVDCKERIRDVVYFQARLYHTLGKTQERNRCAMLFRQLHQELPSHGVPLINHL

In test [11] the target is T11, HeLa cell extract proteins (Homo sapiens, UniProt P51858).
T11 construct: endogenous in cells; host or cells: HeLa cell extract
T11 sequence (P51858 whole entry): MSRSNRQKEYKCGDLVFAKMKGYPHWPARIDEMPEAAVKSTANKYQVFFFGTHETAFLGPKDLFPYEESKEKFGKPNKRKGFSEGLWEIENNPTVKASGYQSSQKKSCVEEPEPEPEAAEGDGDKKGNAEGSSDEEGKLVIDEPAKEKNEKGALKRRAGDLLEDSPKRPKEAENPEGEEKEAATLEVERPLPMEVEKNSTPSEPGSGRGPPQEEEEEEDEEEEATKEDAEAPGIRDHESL

Where [12] appears, read: HeLa, protein S100A11 (PROTEIN S100-A11.).
[13] abbreviates: HeLa, protein EEF2 (ELONGATION FACTOR 2.).

Molecules are shown by their SMILES. Like-named read-outs stand apart in the source and are kept apart here.

T7 sequence (Q16576 whole entry): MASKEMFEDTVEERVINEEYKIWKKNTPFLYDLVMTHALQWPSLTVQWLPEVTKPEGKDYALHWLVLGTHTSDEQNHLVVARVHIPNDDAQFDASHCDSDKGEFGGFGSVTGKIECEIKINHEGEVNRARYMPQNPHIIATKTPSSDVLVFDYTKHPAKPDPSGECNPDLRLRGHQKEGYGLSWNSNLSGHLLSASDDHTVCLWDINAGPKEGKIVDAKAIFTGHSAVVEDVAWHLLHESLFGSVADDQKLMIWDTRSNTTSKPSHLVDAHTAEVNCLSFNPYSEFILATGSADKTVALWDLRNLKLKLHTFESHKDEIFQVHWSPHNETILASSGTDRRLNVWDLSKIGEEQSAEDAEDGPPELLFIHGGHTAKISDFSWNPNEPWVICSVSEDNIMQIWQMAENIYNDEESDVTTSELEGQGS
T8 sequence (P10809 27-573): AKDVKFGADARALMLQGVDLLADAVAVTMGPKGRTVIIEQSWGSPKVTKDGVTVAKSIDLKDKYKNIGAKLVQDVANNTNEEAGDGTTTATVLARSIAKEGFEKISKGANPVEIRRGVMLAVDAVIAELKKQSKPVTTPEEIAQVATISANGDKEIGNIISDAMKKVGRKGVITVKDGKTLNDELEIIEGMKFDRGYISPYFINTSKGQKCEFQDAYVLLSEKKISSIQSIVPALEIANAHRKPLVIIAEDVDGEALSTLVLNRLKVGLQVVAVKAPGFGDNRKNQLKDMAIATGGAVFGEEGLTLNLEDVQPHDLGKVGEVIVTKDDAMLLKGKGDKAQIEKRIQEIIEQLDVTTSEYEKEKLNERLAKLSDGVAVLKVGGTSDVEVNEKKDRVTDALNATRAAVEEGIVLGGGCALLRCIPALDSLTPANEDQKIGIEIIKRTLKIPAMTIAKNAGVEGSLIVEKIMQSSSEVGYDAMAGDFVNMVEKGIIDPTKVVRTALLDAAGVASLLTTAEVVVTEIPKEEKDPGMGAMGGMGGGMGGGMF

As for `Nc1nc2c(c(=O)[nH]1)N(C=O)C(CNc1ccc(C(=O)N[C@@H](CCC(=O)O)C(=O)O)cc1)CN2` (some centres unmarked) [LEU, leucovorin], the “fold changes relative to vehicle control” value in test [1] (protein ACAD10, HeLa) is reported as 0.96; in test [2] (HeLa, protein TRIP13) it was 0.92; in test [3] (protein NIF3L1, HeLa), 0.95; in test [4] (HeLa, captured protein mTOR), 1.05; in test [5] (HeLa, protein S100A11) it was 1.32; in [6] (HeLa, protein EEF2) it was 1.06. Further, the “fold changes relative to vehicle control” value in test [7] (HeLa, protein RBBP7) was determined as 1.05; in test [8] (HeLa, protein HSPD1), 1.12; in test [9] (HeLa, protein NUP37) it was 0.86; in test [10] (HeLa, captured protein ANAPC5), 1.07; in test [11] (HeLa, protein HDGF) it was 1.06.

In the case of `Nc1nc2[nH]cc(CCc3ccc(C(=O)N[C@@H](CCC(=O)O)C(=O)O)cc3)c2c(=O)[nH]1` [PTX, pemetrexed], the “fold changes relative to vehicle control” value came to 0.71 in [1]; 0.88 in test [2]; 0.9 in test [3]; 0.99 in test [4]; 1.29 in test [5]; 1.2 in test [6]. Further, the “fold changes relative to vehicle control” value in [7] is 1.04; in [8] it was 1.14; in test [9], 0.91; in test [10], 1.07; in test [11], 1.21.

On to `CCCCCCOc1ccc(Cc2cnc(N)nc2N)cc1` [compound 1], for which the “fold changes relative to vehicle control” value in test [1] (captured protein ACAD10, HeLa) is recorded as 0.84; in test [2] (HeLa, protein TRIP13), 0.96; in [3] (captured protein NIF3L1, HeLa), 0.5; in test [4] (captured protein mTOR, HeLa), 0.89; in [5] (setting [12]), 1.66 fold; in test [6] (setting [13]), 1.33 fold. Also, the “fold changes relative to vehicle control” value in test [7] (protein RBBP7, HeLa) came out at 1.05; in [8] (protein HSPD1, HeLa) it was 1.32; in test [9] (captured protein NUP37, HeLa), 1.14; in test [10] (captured protein ANAPC5, HeLa), 1.06; in [11] (protein HDGF, HeLa) it was 1.26.

In the case of `CCCCCCOc1cccc(Cc2cnc(N)nc2N)c1` [compound 2], the “fold changes relative to vehicle control” value in test [1] (captured protein ACAD10, HeLa) was 0.84; in test [2] (HeLa, protein TRIP13), 1.17; in test [3] (captured protein NIF3L1, HeLa) it was 0.97; in test [4] (captured protein mTOR, HeLa), 1.1; in test [5] (setting [12]), 2.47 fold; in test [6] (setting [13]), 2.22 fold. Besides, the “fold changes relative to vehicle control” value in test [7] (protein RBBP7, HeLa) was 1.47; in test [8] (protein HSPD1, HeLa) it was 1.71; in [9] (captured protein NUP37, HeLa) it was 0.98; in test [10] (captured protein ANAPC5, HeLa), 1; in test [11] (protein HDGF, HeLa), 2.45.

As to `Nc1nc2cccc(-c3ccccc3)c2n1Cc1ccc(Cl)c(Cl)c1` [compound 3], the “fold changes relative to vehicle control” value is given as 0.94 in [1] (captured protein ACAD10, HeLa); 1.24 in test [2] (HeLa, protein TRIP13); 0.98 in [3] (captured protein NIF3L1, HeLa); 1.01 in [4] (captured protein mTOR, HeLa); 1.08 fold in test [5] (setting [12]); 0.97 fold in [6] (HeLa, protein EEF2 ([…] 2.)). Besides, the “fold changes relative to vehicle control” value in [7] (protein RBBP7, HeLa) worked out at 0.85; in test [8] (protein HSPD1, HeLa), 1.03; in [9] (captured protein NUP37, HeLa) it was 1.01; in [10] (captured protein ANAPC5, HeLa), 1.07; in [11] (protein HDGF, HeLa), 0.9.

Turning to `NCCOCCOCC(=O)Nc1nc2ncc(CNc3ccc(C(=O)NC(CCC(=O)O)C(=O)O)cc3)nc2c(=O)[nH]1` (centres unmarked) [compound 6], the “fold changes relative to vehicle control” value in test [1] (protein ACAD10, HeLa) is recorded as 0.76; in [2] (HeLa, protein TRIP13) it was 0.94; in test [3] (protein NIF3L1, HeLa), 0.25; in test [4] (HeLa, captured protein mTOR), 1.15; in [5] (HeLa, protein S100A11), 1.59; in test [6] (HeLa, protein EEF2), 1.35. For the same compound, the “fold changes relative to vehicle control” value worked out at 1.18 in test [7] (HeLa, protein RBBP7); 1.21 in test [8] (HeLa, protein HSPD1); 0.9 in test [9] (HeLa, protein NUP37); 1.05 in [10] (HeLa, captured protein ANAPC5); 1.31 in test [11] (HeLa, protein HDGF).

Regarding `NCCCNc1ccc(C(=O)NC(CCC(=O)O)C(=O)O)cc1` (centres unmarked) [compound 7], the “fold changes relative to vehicle control” value in test [1] (protein ACAD10, HeLa) was determined as 0.95; in [2] (HeLa, protein TRIP13) it was 1.09; in test [3] (protein NIF3L1, HeLa), 0.94; in test [4] (HeLa, captured protein mTOR) it was 1.2; in [5] (HeLa, protein S100A11) it was 1.2; in [6] (HeLa, protein EEF2), 1.04. Moreover, the “fold changes relative to vehicle control” value is on record as 0.98 in test [7] (HeLa, protein RBBP7); 1 in test [8] (HeLa, protein HSPD1); 0.96 in test [9] (HeLa, protein NUP37); 1.1 in [10] (HeLa, captured protein ANAPC5); 0.97 in test [11] (HeLa, protein HDGF).
